Measured values taken from paper PMC3553658 (Combinatorial chemistry & high throughput screening, 2012).
“Also recorded” adds a separate entry of the source.

How the values were obtained:
Assay type in all cases: biochemical
SET8 [1] = molecular target: T1, SET8 (Homo sapiens, UniProt Q9NQR1); assay: SPIA-bead assay; settings: read-out: SET8 [% IHBN], SPIA primary screen, 10 μM compound, duplicate
T1 sequence (Q9NQR1 191-352 isoform Q9NQR1-2): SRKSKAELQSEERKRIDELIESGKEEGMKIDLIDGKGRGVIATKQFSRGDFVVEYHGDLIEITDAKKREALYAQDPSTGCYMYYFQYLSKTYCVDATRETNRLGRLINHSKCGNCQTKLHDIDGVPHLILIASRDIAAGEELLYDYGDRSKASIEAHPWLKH

SETD2 [2] = molecular target: T2, SETD2 (Homo sapiens, UniProt Q9BYW2); assay: SPIA-bead assay; settings: SPIA primary screen, 10 μM compound, duplicate
T2 sequence (Q9BYW2 1347-1711): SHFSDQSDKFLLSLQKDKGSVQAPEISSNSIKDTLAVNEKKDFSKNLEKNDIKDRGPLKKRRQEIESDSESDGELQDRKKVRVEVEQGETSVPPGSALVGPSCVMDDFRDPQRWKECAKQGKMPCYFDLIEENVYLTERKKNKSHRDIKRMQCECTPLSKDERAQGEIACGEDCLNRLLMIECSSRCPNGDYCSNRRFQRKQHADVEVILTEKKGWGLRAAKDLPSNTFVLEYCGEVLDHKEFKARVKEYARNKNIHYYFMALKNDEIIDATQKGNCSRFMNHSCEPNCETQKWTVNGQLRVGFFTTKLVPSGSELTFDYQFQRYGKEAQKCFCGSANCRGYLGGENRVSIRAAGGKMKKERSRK

EuHMTase1 = molecular target: T3, EuHMTase1 (Homo sapiens, UniProt Q9H9B1); assay: Filter-paper assay dose response, EuHMTase1; settings: up to 100 μM
T3 sequence (Q9H9B1 982-1266): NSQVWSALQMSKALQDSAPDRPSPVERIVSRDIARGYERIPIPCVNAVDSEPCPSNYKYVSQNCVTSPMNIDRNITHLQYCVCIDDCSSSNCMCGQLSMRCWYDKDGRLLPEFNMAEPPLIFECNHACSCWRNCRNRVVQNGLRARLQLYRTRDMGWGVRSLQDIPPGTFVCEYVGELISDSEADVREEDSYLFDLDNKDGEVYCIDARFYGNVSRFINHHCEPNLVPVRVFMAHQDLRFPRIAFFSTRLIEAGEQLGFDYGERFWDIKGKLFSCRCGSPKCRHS

SET8 [3] = molecular target: T1, SET8; assay: Filter-paper assay dose response, SET8; settings: up to 100 μM
SETD2 [4] = molecular target: T2, SETD2; assay: Filter-paper assay dose response, SETD2; settings: up to 100 μM
SET7/9 [5] = molecular target: T4, SET7/9 (Homo sapiens, UniProt Q8WTS6); assay: Filter-paper assay dose response, SET7/9; settings: up to 100 μM
T4 sequence (Q8WTS6 1-366): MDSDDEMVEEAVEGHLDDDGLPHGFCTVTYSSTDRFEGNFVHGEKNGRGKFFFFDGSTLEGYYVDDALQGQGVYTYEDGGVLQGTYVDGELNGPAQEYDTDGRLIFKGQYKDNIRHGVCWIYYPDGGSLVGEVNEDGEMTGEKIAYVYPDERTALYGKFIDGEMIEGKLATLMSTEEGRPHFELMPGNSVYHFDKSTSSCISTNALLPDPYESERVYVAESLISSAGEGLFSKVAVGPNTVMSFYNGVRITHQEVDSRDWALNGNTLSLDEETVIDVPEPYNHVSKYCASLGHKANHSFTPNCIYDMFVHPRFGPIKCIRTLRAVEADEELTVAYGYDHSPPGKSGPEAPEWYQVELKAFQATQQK

SET7/9 [6] = molecular target: T4, SET7/9; assay: SPIA-bead assay; settings: SPIA primary screen, 10 μM compound, duplicate

Structure (SMILES) | inhibition at 10 µM (SET8 [1]) [%] | SETD2 [% IHBN] (SETD2 [2]) | Inhibition of EuHMTase1 in filter-paper assay (EuHMTase1) | Inhibition of SET8 in filter-paper assay (SET8 [3]) | Inhibition of SETD2 in filter-paper assay (SETD2 [4]) | Inhibition of SET7/9 in filter-paper assay (SET7/9 [5]) | SET7/9 [% IHBN] (SET7/9 [6]) [%]
O=C(O)CCCC[C@@H]1SC[C@@H]2NC(=O)N[C@@H]21 [Biotin] | 60 to 90 | 60–90% | no inhibition; also recorded: did not find inhibition | no inhibition; also recorded: did not find inhibition | no inhibition; also recorded: did not find inhibition | no inhibition; also recorded: did not find inhibition | 
O=C(Nc1ccc(C(=O)Nc2ccc(C(=O)Nc3ccc(S(=O)(=O)[O-])c4cc(S(=O)(=O)[O-])cc(S(=O)(=O)[O-])c34)cc2)cc1)Nc1ccc(C(=O)Nc2ccc(C(=O)Nc3ccc(S(=O)(=O)[O-])c4cc(S(=O)(=O)[O-])cc(S(=O)(=O)[O-])c34)cc2)cc1.[Na+].[Na+].[Na+].[Na+].[Na+].[Na+] [NF 279, 8,8′-[Carbonylbis(imino-4,1-phenylenecarbonylimino-4,1-phenylenecarbonylimino)]bis-1,3,5-naphtlenetrisulfonic acid hexasodium salt] |  |  |  |  |  |  | 83
